From article PMC11868595, “Safety, pharmacokinetics and efficacy of HA121-28 in patients with advanced solid tumors and RET fusion-positive non-small-cell lung cancer: a multicenter, open-label, single-arm phase 1/2 trial” (Signal Transduction and Targeted Therapy, 2025)

System: patients with RET fusion-positive NSCLC
Assay: Phase 2 trial: adverse events (CTCAE)
Format: in vivo, human
Source text: The phase 2 trial was still ongoing. It was a single-arm, multicenter, open-label, nonrandomized study to assess the efficacy and safety of HA121-28 in RET-fusion-positive NSCLC.
Patients aged 18–75 years (inclusive) who had unresectable locally advanced or metastatic NSCLC through histologically or cytologically examination were enrolled. Patients were also required to have documented RET fusions centrally examined by next-generation sequencing in certified laboratories but without other oncogenic alterations. Had progression on at least one previous line of standard treatment but have no previous use of other anti-RET inhibitors. The complete lists of inclusion and exclusion criteria of phase 1 and phase 2 are provided in both protocols (in Supplement).
In phase 1 trial, during the dose-escalation part, patients first administered HA121-28 in a single ascending dose under the fasted state, then followed up for seven days. Then, patients received ascending doses of HA121-28 (q.d.) on a 21-day on and 7-day off treatment scheme for a 28-day cycle. For patients deemed beneficial from the treatment by investigators, treatment could remain until disease progression, or they discontinued from the study. In the dose-expansion part of phase 1, as well as phase 2, patients received HA121-28 (q.d.) at the selected doses on a 21-day on and 7-day off treatment scheme until disease progression, or they discontinued from the study.
Treatment-emergent adverse events (TEAEs) were documented during the entire study period. The predefined adverse event of special interest (AESI) was ≥ grade 3 prolonged QT interval. Tumor imaging was performed using contrast-enhanced computed tomography or magnetic resonance imaging at screening, Day 28 of the first cycle, then approximately every eight weeks till the end of the study for phase 1; in phase 2, imaging was scheduled at screening, and every eight weeks during the first 40 weeks, followed by every 12 weeks for the rest of the study period. RECIST 1.1 was used by the independent review committee or investigators for assessment of tumor response. After the original assessment, a repeated assessment was required around four weeks later to confirm a complete or partial response.
The primary endpoint of phase 2 was the independent review committee evaluated ORR using RECIST 1.1. The secondary endpoints included investigators assessed ORR; DCR, PFS, and DOR by the independent review committee and investigators; overall survival and TEAEs. Each TEAE was graded according to CTCAE version 5.0 and coded by MedDRA (version 24.0). The phase 2 trial is ongoing; not all endpoints are reported in this paper.

Structure (SMILES): COc1cc2c(Nc3ccc(Br)cc3F)ncnc2cc1OCCCCN(C)C.Cl.Cl [HA121-28, N-(4-bromo-2-fluorophenyl)-7-(4-(dimethylamino)butoxy)-6-methoxy quinazolin-4-amine dihydrochloride]
- TEAE, All: ALT increased (Phase 2 (N=48), 450 mg): 20 (41.7) count (percentage)
- TEAE, All: AST increased (Phase 2 (N=48), 450 mg): 21 (43.8) count (percentage)
- TEAE, All: Anemia (Phase 2 (N=48), 450 mg): 5 (10.4) count (percentage)
- TEAE, All: Any (Phase 2 (N=48), 450 mg): 48 (100) count (percentage)
- TEAE, All: Asthenia (Phase 2 (N=48), 450 mg): 7 (14.6) count (percentage)
- TEAE, All: Blood ALP increased (Phase 2 (N=48), 450 mg): 5 (10.4) count (percentage)
- TEAE, All: Blood creatinine increased (Phase 2 (N=48), 450 mg): 9 (18.8) count (percentage)
- TEAE, All: COVID-19 (Phase 2 (N=48), 450 mg): 7 (14.6) count (percentage)
- TEAE, All: Cough (Phase 2 (N=48), 450 mg): 6 (12.5) count (percentage)
- TEAE, All: Decreased appetite (Phase 2 (N=48), 450 mg): 5 (10.4) count (percentage)
- TEAE, All: Diarrhea (Phase 2 (N=48), 450 mg): 35 (72.9) count (percentage)
- TEAE, All: Dizziness (Phase 2 (N=48), 450 mg): 3 (6.3) count (percentage)
- TEAE, All: Electrocardiogram T wave abnormal (Phase 2 (N=48), 450 mg): 5 (10.4) count (percentage)
- TEAE, All: Fecal occult blood positive (Phase 2 (N=48), 450 mg): 0 count (percentage)
- TEAE, All: GGT increased (Phase 2 (N=48), 450 mg): 6 (12.5) count (percentage)
- TEAE, All: Hypertension (Phase 2 (N=48), 450 mg): 11 (22.9) count (percentage)
- TEAE, All: Hypertriglyceridemia (Phase 2 (N=48), 450 mg): 7 (14.6) count (percentage)
- TEAE, All: Hypoalbuminemia (Phase 2 (N=48), 450 mg): 4 (8.3) count (percentage)
- TEAE, All: Hypokalemia (Phase 2 (N=48), 450 mg): 11 (22.9) count (percentage)
- TEAE, All: Hyponatremia (Phase 2 (N=48), 450 mg): 5 (10.4) count (percentage)
- TEAE, All: Nausea (Phase 2 (N=48), 450 mg): 3 (6.3) count (percentage)
- TEAE, All: Neutrophil counts decreased (Phase 2 (N=48), 450 mg): 7 (14.6) count (percentage)
- TEAE, All: Platelet counts decreased (Phase 2 (N=48), 450 mg): 6 (12.5) count (percentage)
- TEAE, All: Prolonged QT interval (Phase 2 (N=48), 450 mg): 21 (43.8) count (percentage)
- TEAE, All: Proteinuria (Phase 2 (N=48), 450 mg): 16 (33.3) count (percentage)
- TEAE, All: Rash (Phase 2 (N=48), 450 mg): 30 (62.5) count (percentage)
- TEAE, All: Sinus tachycardia (Phase 2 (N=48), 450 mg): 5 (10.4) count (percentage)
- TEAE, All: Urinary tract infection (Phase 2 (N=48), 450 mg): 5 (10.4) count (percentage)
- TEAE, All: Vomiting (Phase 2 (N=48), 450 mg): 6 (12.5) count (percentage)
- TEAE, All: Weight loss (Phase 2 (N=48), 450 mg): 5 (10.4) count (percentage)
- TEAE, All: White blood cell counts decreased (Phase 2 (N=48), 450 mg): 8 (16.7) count (percentage)
- TEAE, ≥ Grade 3: ALT increased (Phase 2 (N=48), 450 mg): 3 (6.3) count (percentage)
- TEAE, ≥ Grade 3: AST increased (Phase 2 (N=48), 450 mg): 2 (4.2) count (percentage)
- TEAE, ≥ Grade 3: Anemia (Phase 2 (N=48), 450 mg): 0 count (percentage)
- TEAE, ≥ Grade 3: Any (Phase 2 (N=48), 450 mg): 35 (72.9) count (percentage)
- TEAE, ≥ Grade 3: Asthenia (Phase 2 (N=48), 450 mg): 0 count (percentage)
- TEAE, ≥ Grade 3: Blood ALP increased (Phase 2 (N=48), 450 mg): 0 count (percentage)
- TEAE, ≥ Grade 3: Blood creatinine increased (Phase 2 (N=48), 450 mg): 0 count (percentage)
- TEAE, ≥ Grade 3: COVID-19 (Phase 2 (N=48), 450 mg): 1 (2.1) count (percentage)
- TEAE, ≥ Grade 3: Cough (Phase 2 (N=48), 450 mg): 0 count (percentage)
- TEAE, ≥ Grade 3: Decreased appetite (Phase 2 (N=48), 450 mg): 1 (2.1) count (percentage)
- TEAE, ≥ Grade 3: Diarrhea (Phase 2 (N=48), 450 mg): 6 (12.5) count (percentage)
- TEAE, ≥ Grade 3: Dizziness (Phase 2 (N=48), 450 mg): 0 count (percentage)
- TEAE, ≥ Grade 3: Electrocardiogram T wave abnormal (Phase 2 (N=48), 450 mg): 0 count (percentage)
- TEAE, ≥ Grade 3: Fecal occult blood positive (Phase 2 (N=48), 450 mg): 0 count (percentage)
- TEAE, ≥ Grade 3: GGT increased (Phase 2 (N=48), 450 mg): 0 count (percentage)
- TEAE, ≥ Grade 3: Hypertension (Phase 2 (N=48), 450 mg): 9 (18.8) count (percentage)
- TEAE, ≥ Grade 3: Hypertriglyceridemia (Phase 2 (N=48), 450 mg): 0 count (percentage)
- TEAE, ≥ Grade 3: Hypoalbuminemia (Phase 2 (N=48), 450 mg): 0 count (percentage)
- TEAE, ≥ Grade 3: Hypokalemia (Phase 2 (N=48), 450 mg): 3 (6.3) count (percentage)
- TEAE, ≥ Grade 3: Hyponatremia (Phase 2 (N=48), 450 mg): 0 count (percentage)
- TEAE, ≥ Grade 3: Nausea (Phase 2 (N=48), 450 mg): 0 count (percentage)
- TEAE, ≥ Grade 3: Neutrophil counts decreased (Phase 2 (N=48), 450 mg): 2 (4.2) count (percentage)
- TEAE, ≥ Grade 3: Platelet counts decreased (Phase 2 (N=48), 450 mg): 0 count (percentage)
- TEAE, ≥ Grade 3: Prolonged QT interval (Phase 2 (N=48), 450 mg): 15 (31.3) count (percentage)
- TEAE, ≥ Grade 3: Proteinuria (Phase 2 (N=48), 450 mg): 0 count (percentage)
- TEAE, ≥ Grade 3: Rash (Phase 2 (N=48), 450 mg): 1 (2.1) count (percentage)
- TEAE, ≥ Grade 3: Sinus tachycardia (Phase 2 (N=48), 450 mg): 0 count (percentage)
- TEAE, ≥ Grade 3: Urinary tract infection (Phase 2 (N=48), 450 mg): 1 (2.1) count (percentage)
- TEAE, ≥ Grade 3: Vomiting (Phase 2 (N=48), 450 mg): 0 count (percentage)
- TEAE, ≥ Grade 3: Weight loss (Phase 2 (N=48), 450 mg): 0 count (percentage)
- TEAE, ≥ Grade 3: White blood cell counts decreased (Phase 2 (N=48), 450 mg): 1 (2.1) count (percentage)
- Serious TEAE: ALT increased (Phase 2, 450 mg (N=48)): 1 (2.1) No. (%)
- Serious TEAE: AST increased (Phase 2, 450 mg (N=48)): 1 (2.1) No. (%)
- Serious TEAE: Abdominal Pain (Phase 2, 450 mg (N=48)): 1 (2.1) No. (%)
- Serious TEAE: Abdominal distension (Phase 2, 450 mg (N=48)): 1 (2.1) No. (%)
- Serious TEAE: Acute cholecystitis (Phase 2, 450 mg (N=48)): 0 No. (%)
- Serious TEAE: Acute pancreatitis (Phase 2, 450 mg (N=48)): 0 No. (%)
- Serious TEAE: Anal abscess (Phase 2, 450 mg (N=48)): 0 No. (%)
- Serious TEAE: Any (Phase 2, 450 mg (N=48)): 19 (39.6) No. (%)
- Serious TEAE: Aortic intramural hematoma (Phase 2, 450 mg (N=48)): 0 No. (%)
- Serious TEAE: Arrhythmia (Phase 2, 450 mg (N=48)): 0 No. (%)
- Serious TEAE: Blood bilirubin increased (Phase 2, 450 mg (N=48)): 0 No. (%)
- Serious TEAE: Blood creatinine increased (Phase 2, 450 mg (N=48)): 0 No. (%)
- Serious TEAE: COVID-19 (Phase 2, 450 mg (N=48)): 1 (2.1) No. (%)
- Serious TEAE: Cardiac tamponade (Phase 2, 450 mg (N=48)): 0 No. (%)
- Serious TEAE: Coronary artery atherosclerosis (Phase 2, 450 mg (N=48)): 1 (2.1) No. (%)
- Serious TEAE: Death (Phase 2, 450 mg (N=48)): 1 (2.1) No. (%)
- Serious TEAE: Diarrhea (Phase 2, 450 mg (N=48)): 1 (2.1) No. (%)
- Serious TEAE: Drug eruption (Phase 2, 450 mg (N=48)): 0 No. (%)
- Serious TEAE: Dyspnea (Phase 2, 450 mg (N=48)): 1 (2.1) No. (%)
- Serious TEAE: Embolism (Phase 2, 450 mg (N=48)): 1 (2.1) No. (%)
- Serious TEAE: Erythema multiforme (Phase 2, 450 mg (N=48)): 1 (2.1) No. (%)
- Serious TEAE: Headache (Phase 2, 450 mg (N=48)): 1 (2.1) No. (%)
- Serious TEAE: Hemoptysis (Phase 2, 450 mg (N=48)): 0 No. (%)
- Serious TEAE: Hydronephrosis (Phase 2, 450 mg (N=48)): 1 (2.1) No. (%)
- Serious TEAE: Hypertension (Phase 2, 450 mg (N=48)): 2 (4.2) No. (%)
- Serious TEAE: Hypoalbuminemia (Phase 2, 450 mg (N=48)): 0 No. (%)
- Serious TEAE: Intestinal obstruction (Phase 2, 450 mg (N=48)): 0 No. (%)
- Serious TEAE: Intra-abdominal fluid collection (Phase 2, 450 mg (N=48)): 1 (2.1) No. (%)
- Serious TEAE: Intracranial tumor hemorrhage (Phase 2, 450 mg (N=48)): 1 (2.1) No. (%)
- Serious TEAE: Liver injury (Phase 2, 450 mg (N=48)): 0 No. (%)
- Serious TEAE: Lung adenocarcinoma (Phase 2, 450 mg (N=48)): 1 (2.1) No. (%)
- Serious TEAE: Malignant neoplasm progression (Phase 2, 450 mg (N=48)): 1 (2.1) No. (%)
- Serious TEAE: Multiple organ dysfunction syndrome (Phase 2, 450 mg (N=48)): 0 No. (%)
- Serious TEAE: Nausea (Phase 2, 450 mg (N=48)): 0 No. (%)
- Serious TEAE: Nephrolithiasis (Phase 2, 450 mg (N=48)): 1 (2.1) No. (%)
- Serious TEAE: Platelet counts decreased (Phase 2, 450 mg (N=48)): 0 No. (%)
- Serious TEAE: Pleural effusion (Phase 2, 450 mg (N=48)): 0 No. (%)
